Values quoted from earlier work, collected in patent US20220175718A1, “TRANSDERMAL PHARMACEUTICAL FORMULATIONS FOR THE TREATMENT OF CANCER” (PIKE THERAPEUTICS, INC., priority 2020, published 2022).

Key:
[1] = biological target: CB2 (Homo sapiens, UniProt P34972); conditions: for selectivity for CB2 over CB1: given as ×, fold or times
[2] = biological target: CB1 (Homo sapiens, UniProt P21554)
Chain of CB1 (P21554 whole entry, species assumed): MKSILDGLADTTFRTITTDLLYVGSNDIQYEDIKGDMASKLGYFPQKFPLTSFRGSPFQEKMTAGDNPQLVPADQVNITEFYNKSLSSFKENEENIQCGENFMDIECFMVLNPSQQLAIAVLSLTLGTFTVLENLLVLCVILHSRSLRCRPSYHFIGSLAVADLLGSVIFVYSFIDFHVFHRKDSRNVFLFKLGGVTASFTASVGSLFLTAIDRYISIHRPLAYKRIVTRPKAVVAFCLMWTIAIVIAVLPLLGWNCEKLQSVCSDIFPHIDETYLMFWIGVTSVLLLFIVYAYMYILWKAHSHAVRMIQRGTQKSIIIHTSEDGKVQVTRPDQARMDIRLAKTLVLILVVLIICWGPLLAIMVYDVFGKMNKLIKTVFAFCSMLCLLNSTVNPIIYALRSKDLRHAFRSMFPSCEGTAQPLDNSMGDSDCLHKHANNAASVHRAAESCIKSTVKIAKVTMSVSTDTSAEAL

Chain of CB2 (P34972 whole entry, species assumed): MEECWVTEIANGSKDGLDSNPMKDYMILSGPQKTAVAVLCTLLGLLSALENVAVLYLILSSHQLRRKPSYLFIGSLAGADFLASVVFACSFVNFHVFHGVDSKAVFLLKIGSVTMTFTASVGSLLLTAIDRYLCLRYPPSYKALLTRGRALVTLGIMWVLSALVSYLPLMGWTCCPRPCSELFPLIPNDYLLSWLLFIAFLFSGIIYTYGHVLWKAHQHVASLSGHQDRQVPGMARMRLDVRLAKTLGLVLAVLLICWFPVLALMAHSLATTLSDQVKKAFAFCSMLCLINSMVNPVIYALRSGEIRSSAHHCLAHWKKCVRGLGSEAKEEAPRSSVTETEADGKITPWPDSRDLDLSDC

## CCCCCCC(C)(C)c1cc(O)c2c(c1)oc(=O)c1ccc(OC)cc12 [AM-1710]
[1]
  selectivity for CB2 over CB1: 54

## CCCn1cc(C(=O)c2ccc(C)c3ccccc23)c2ccccc21 [JWH-120]
[1]
  selectivity for CB2 over CB1: 173

## CCCn1c(C)c(C(=O)c2ccc(C)c3ccccc23)c2ccccc21 [JWH-148]
[1]
  selectivity for CB2 over CB1: more than 8

## CCCCCCC(C)(C)c1cc(OC)c2c(c1)OC(C)(C)C1CCC(O)CC21 (stereo not drawn) [JWH-350, 11-nor-1-methoxy-3-(1′,1′-dimethylheptyl)-9α-hydroxyhexahydrocannabinol]
[1]
  selectivity for CB2 over CB1: 33

## CCCCCn1cc(C(=O)c2ccc(Cl)c3ccccc23)c2ccccc21 [JWH-398]
[1]
  Ki: 2.8 nM
[2]
  Ki: 2.3 nM

## CCCCCn1cc(C(=O)c2cccc3cccc(Br)c23)c2ccccc21 [JWH-424]
[1]
  Ki: 5.44 nM
[2]
  Ki: 20.9 nM
